These results are taken from ChEMBL document CHEMBL1150608, “Five new labdane diterpenes from Aster oharai” (2002).

Assay type in all cases: functional
What all share (conditions): read-out: ED50 (the source's name)

One assay has as its system SW-620. Briefly: Cytotoxicity against human SW620 cells by sulforhodamine B method. In general terms: The SRB assay estimates cell density from bound dye.
In another assay the test system is SNB-19. The assay is described as follows: Cytotoxicity against human SNB19 cells by sulforhodamine B method.
The next assay deals with LOX IMVI. The assay is described as follows: Cytotoxicity against human LOXIMVI cells by sulforhodamine B method.
For another assay, the system named is A549. Briefly: Cytotoxicity against human A549 cells by sulforhodamine B method.
A further assay concerns SK-OV-3. Briefly: Cytotoxicity against human SKOV3 cells by sulforhodamine B method.
The test system of the next assay is U-251. Briefly: Cytotoxicity against human U251 cells by sulforhodamine B method.
For the next assay, the system named is SK-MEL-2. The assay is described as follows: Cytotoxicity against human SK-MEL-2 cells by sulforhodamine B method.
The test system of the next assay is HCT-15. Briefly: Cytotoxicity against human HCT15 cells by sulforhodamine B method.

The structures appear in SMILES notation. Values after ≈ are worked out from the molar mass of the structure shown. Bounds are passed on as bounds.

As to `C=C[C@@](C)(CCC1=C(C)[C@H](OO)C[C@H]2C(C)(C)CCC[C@]12C)O[C@@H]1O[C@@H](C)[C@@H](OC(C)=O)[C@H](O)[C@H]1O`, the EC50 in the assay on SW-620, with SNB-19, in the assay on LOX IMVI, with A549, in the assay on SK-OV-3 and in the assay on U-251 was more than 10 µg/mL in each case. Besides, the EC50 in the assay with SK-MEL-2 and with HCT-15 was more than 10 µg/mL each time.

Turning to `C=C[C@@](C)(CC[C@H]1C(C)=CC[C@H]2C(C)(C)CCC[C@]12C)O[C@@H]1O[C@@H](C)[C@H](O)[C@@H](OC(C)=O)[C@H]1O`, the EC50 in the assay with SW-620, with SNB-19, with LOX IMVI, in the assay on A549, in the assay with SK-OV-3 and in the assay on U-251 was more than 10 µg/mL each time. Besides, the EC50 with SK-MEL-2 and with HCT-15 was more than 10 µg/mL in each case.

As for `C=C[C@@](C)(CC[C@H]1C(C)=CC[C@H]2C(C)(C)CCC[C@]12C)O[C@@H]1O[C@@H](C)[C@H](O)[C@@H](O)[C@H]1OC(C)=O`, the EC50 in the assay with SW-620, with SNB-19, in the assay with LOX IMVI, in the assay with A549, in the assay on SK-OV-3 and in the assay with U-251 was more than 10 µg/mL in each case. For the same compound, the EC50 in the assay on SK-MEL-2 and in the assay with HCT-15 was more than 10 µg/mL each time.

Take `COc1cccc2c1C(=O)c1c(O)c3c(c(O)c1C2=O)C[C@@](O)(C(=O)CO)C[C@@H]3O[C@H]1C[C@H](N)[C@H](O)[C@H](C)O1` [DOXORUBICIN]: the EC50 turned out to be 0.003 µg/mL (≈ 0.00552 µM) in the assay on SW-620; 0.002 µg/mL (≈ 0.00368 µM) in the assay with SNB-19; 0.001 µg/mL (≈ 0.00184 µM) with LOX IMVI; 0.001 µg/mL (≈ 0.00184 µM) with A549; 0.01 µg/mL (≈ 0.0184 µM) with SK-OV-3; 0.001 µg/mL (≈ 0.00184 µM) with U-251. In addition, the EC50 with SK-MEL-2 worked out at 0.002 µg/mL (≈ 0.00368 µM); in the assay with HCT-15 it was 0.006 µg/mL (≈ 0.011 µM).

For `C=C[C@@](C)(CC[C@H]1C(C)=CC[C@H]2C(C)(C)CCC[C@]12C)O[C@@H]1O[C@@H](C)[C@H](OC(C)=O)[C@@H](O)[C@H]1O`, the EC50 in the assay on SW-620, with SNB-19, with LOX IMVI, with A549, in the assay on SK-OV-3 and in the assay with U-251 was more than 10 µg/mL throughout. The EC50 in the assay with SK-MEL-2 and in the assay on HCT-15 was more than 10 µg/mL each time.
